Laboratory results as given in patent US4401812A, “Anthracycline antibiotics” (Hoffmann-La Roche Inc., priority 1980, dated 1983).
Values after ≈ are worked out from the molar mass of the structure shown. Like-named read-outs stand apart in the source and are kept apart here.

Tests used:
[1] = tested on: Staphylococcus aureus 209P IAM-1011; assay: in vitro MIC, agar streak method; type: cell-based; details: Heart infusion agar
[2] = tested on: Bacillus subtilis IAM-1027; assay: in vitro MIC, agar streak method; type: cell-based; details: Bacillus subtilis IAM-1027, Heart infusion agar
Source text: (§1) | ^(1) Heart infusion agar

[3] = tested on: Escherichia coli K-12 IAM-1264; assay: in vitro MIC, agar streak method; type: cell-based; details: Escherichia coli K-12 IAM-1264, Heart infusion agar
Source text: as §1

[4] = tested on: Escherichia coli NIHJ IFO-12734; assay: in vitro MIC, agar streak method; type: cell-based; details: Escherichia coli NIHJ IFO-12734, Heart infusion agar
Source text: as §1

[5] = tested on: Micrococcus flavus ATCC-10240; assay: in vitro MIC, agar streak method; type: cell-based; details: Heart infusion agar
Source text: as §1

[6] = tested on: Mycobacterium smegmatis IFO-13167; assay: in vitro MIC, agar streak method; type: cell-based; details: Mycolicibacterium smegmatis, IFO13167
Source text: as §1

[7] = tested on: Pseudomonas aeruginosa IFO-12689; assay: in vitro MIC, agar streak method; type: cell-based; details: IFO12689, Heart infusion agar
Source text: as §1

[8] = tested on: Staphylococcus aureus 209P Stf; assay: in vitro MIC, agar streak method; type: cell-based; details: Heart infusion agar
Source text: as §1

Sarcina lutea IAM1009 = assay: in vitro MIC, agar streak method; type: cell-based; details: Heart infusion agar
[9] = tested on: Candida albicans ATCC-10231; assay: in vitro MIC, agar streak method; type: cell-based; details: Candida albicans ATCC-10231, Sabouraud dextrose agar
Source text: (§2) | ^(2) Sabouraud dextrose agar

[10] = tested on: Candida tropicalis ATCC-13803; assay: in vitro MIC, agar streak method; type: cell-based; details: Candida tropicalis ATCC-13803, Sabouraud dextrose agar
Source text: as §2

in vivo = details: mouse, ip, mice, single i.p. injection, judged 72 hours after, read-out: acute intraperitoneal LD50
Description: The acute intraperitoneal LD50 in mice judged 72 hours after a single injection of the antibiotics is about 90 mg/kg for auramycin C, auramycin D, sulfurmycin C and sulfurmycin D, 40~80 mg/kg for auramycin G and sulfurmycin G and 20~40 mg/kg for auramycin E and sulfurmycin E.

P388 leukaemia = assay: Antitumor effect against P388 leukaemia in CDF1 mice; type: in vivo; details: Mus musculus, ip, days 1, 5 and 9, 1×10^6 P388 cells i.p., CDF1 mice, read-out: Mean survival (T/C, %); for response vs control in vivo at 3.75 mg/kg: 3.75 mg/kg/day i.p.; for response vs control in vivo at 7.5 mg/kg: 7.5 mg/kg/day i.p.; for response vs control in vivo at 15 mg/kg: 15.0 mg/kg/day i.p.; for response vs control in vivo at 1.5 mg/kg: 1.5 mg/kg/day i.p.; for response vs control in vivo at 3 mg/kg: 3.0 mg/kg/day i.p.; for response vs control in vivo at 6 mg/kg: 6.0 mg/kg/day i.p.; for response vs control in vivo at 12 mg/kg: 12.0 mg/kg/day i.p.
Description: The anthracycline glycosides provided by the present invention were tested against P388 leukaemia in mice. When CDF1 mice are inoculated with 1×10^6 cells of P388 intraperitoneally and each of the antibiotics is administered intraperitoneally on days 1, 5 and 9, the survival time of the treated mice is prolonged as shown in Table 5 hereinafter.

Bacillus cereus Rol79B = assay: in vitro MIC, agar streak method; type: cell-based; details: Heart infusion agar
Source text: as §1

[11] = tested on: Staphylococcus epidermidis IFO-12993; assay: in vitro MIC, agar streak method; type: cell-based; details: Heart infusion agar
Source text: as §1

[12] = ATCC10240, Micrococcus flavus ATCC-10240, read-out: MIC
[13] = Micrococcus luteus, IAM1009, Sarcina lutea IAM-1009, read-out: MIC
[14] = Staphylococcus aureus, read-out: MIC
[15] = Micrococcus flavus, ATCC10240, Micrococcus flavus ATCC-10240, read-out: MIC
[16] = Staphylococcus epidermidis, IFO12993, Staphylococcus epidermidis IFO-12993, read-out: MIC

Structure (SMILES)	MIC ([1]; read-out: MIC) [µg/mL]	MIC ([2]; IAM1027, read-out: MIC) [µg/mL]	MIC ([3]; IAM1264, read-out: MIC) [µg/mL]	MIC ([4]; IFO12734, read-out: MIC) [µg/mL]	MIC [5, 12] [µg/mL]	MIC [7] [µg/mL]	MIC [8] [µg/mL]	MIC (Sarcina lutea IAM1009; [13]) [µg/mL]	MIC ([9]; ATCC10231, read-out: MIC) [µg/mL]	MIC ([10]; ATCC13803, read-out: MIC) [µg/mL]	LD50 at 72 h (in vivo) [mg/kg]	response vs control in vivo at 3.75 mg/kg (P388 leukaemia) [%]	response vs control in vivo at 7.5 mg/kg (P388 leukaemia) [%]	response vs control in vivo at 15 mg/kg (P388 leukaemia) [%]	MIC [1, 14] [µg/mL]	MIC (Bacillus cereus Rol79B; read-out: MIC) [µg/mL]	MIC [5, 15] [µg/mL]	MIC [11, 16] [µg/mL]	response vs control in vivo at 1.5 mg/kg (P388 leukaemia) [%]	response vs control in vivo at 3 mg/kg (P388 leukaemia) [%]	also measured
COC(=O)C1c2cc3c(c(O)c2C(OC2CC(N(C)C)C(OC4CC(O)C(O)C(C)O4)C(C)O2)CC1(C)O)C(=O)c1c(O)cccc1C3=O (centres unmarked) [Auramycin C]	6.25 (≈ 9.11 µM)	6.25 (≈ 9.11 µM)	> 50	> 50	6.25 (≈ 9.11 µM)	> 50	6.25 (≈ 9.11 µM)	6.25 (≈ 9.11 µM)	> 50	> 50	~90	130	141	128	–	–	–	–	–	–	MIC [6]: 6.25 µg/mL (≈ 9.11 µM); response vs control in vivo at 1.88 mg/kg (P388 leukaemia; 1.88 mg/kg/day i.p.): 135%
COC(=O)C1c2cc3c(c(O)c2C(OC2CC(N(C)C)C(O)C(C)O2)CC1(C)O)C(=O)c1c(O)cccc1C3=O (centres unmarked) [Auramycin D]	12.5 (≈ 22.5 µM)	12.5 (≈ 22.5 µM)	> 50	> 50	12.5 (≈ 22.5 µM)	> 50	12.5 (≈ 22.5 µM)	6.25 (≈ 11.2 µM)	> 50	> 50	~90	103	149	141	–	–	–	–	–	–	MIC ([6]; Mycobacterium smegmatis IFO-13167, Heart infusion agar, read-out: MIC): 3.13 µg/mL (≈ 5.63 µM)
COC(=O)C1c2cc3c(c(O)c2C(OC2CC(N(C)C)C(OC4CC(O)C(OC5CCC(O)C(C)O5)C(C)O4)C(C)O2)CC1(C)O)C(=O)c1c(O)cccc1C3=O (centres unmarked) [Auramycin E]	–	3.12 (≈ 3.9 µM)	> 50	> 50	–	–	–	3.12 (≈ 3.9 µM)	> 50	> 50	20 to 40	–	–	–	1.56 (≈ 1.95 µM)	0.39 (≈ 0.488 µM)	3.12 (≈ 3.9 µM)	3.12 (≈ 3.9 µM)	131	139	response vs control in vivo at 6 mg/kg (P388 leukaemia): 158%; response vs control in vivo at 12 mg/kg (P388 leukaemia): 165%
COC(=O)C1c2cc3c(c(O)c2C(OC2CC(N(C)C)C(OC4CC(O)C(OC5CCC(O)C(C)O5)C(C)O4)C(C)O2)CC1(C)O)C(=O)c1c(O)cccc1C3=O (centres unmarked) [Auramycin F]	–	–	–	–	–	–	–	–	–	–	–	–	–	–	–	–	–	–	–	–	MIC [1]: 3.12 µg/mL (≈ 3.9 µM); MIC (Bacillus cereus Rol79B): 0.39 µg/mL (≈ 0.488 µM); MIC [2]: 3.12 µg/mL (≈ 3.9 µM); MIC [3]: > 50 µg/mL; MIC [4]: > 50 µg/mL; MIC ([5]; Micrococcus flavus ATCC-10240): 3.12 µg/mL (≈ 3.9 µM); MIC ([11]; Staphylococcus epidermidis IFO-12993): 3.12 µg/mL (≈ 3.9 µM); MIC (Sarcina lutea IAM1009; Sarcina lutea IAM-1009): 3.12 µg/mL (≈ 3.9 µM); MIC [9]: > 50 µg/mL; MIC [10]: > 50 µg/mL
COC(=O)C1c2cc3c(c(O)c2C(OC2CC(N(C)C)C(OC4CCC(OC5CCC(O)C(C)O5)C(C)O4)C(C)O2)CC1(C)O)C(=O)c1c(O)cccc1C3=O (centres unmarked) [Auramycin G]	–	12.5 (≈ 15.9 µM)	> 50	> 50	–	–	–	6.25 (≈ 7.97 µM)	> 50	> 50	40 to 80	–	–	–	6.25 (≈ 7.97 µM)	0.78 (≈ 0.995 µM)	6.25 (≈ 7.97 µM)	6.25 (≈ 7.97 µM)	102	109	response vs control in vivo at 6 mg/kg (P388 leukaemia): 105%; response vs control in vivo at 12 mg/kg (P388 leukaemia): 119%
